Measured values published in patent US20230037448A1, “FLUORINATED QUINOLINE AND QUINOXALINE DERIVATIVES AS DIHYDROOROTATE DEHYDROGENASE (DHODH) INHIBITORS FOR THE TREATMENT OF CANCER, AUTOIMMUNE AND INFLAMMATORY DISEASES” (Janssen Biotech, Inc., priority 2019, published 2023).

Experiments:
human DHODH = molecular target: T1, human DHODH (Homo sapiens, UniProt Q02127); experiment: DHODH Enzymatic Assay; format: biochemical; conditions: purified human DHODH; DCIP absorbance, end-point mode
T1 construct: purchased Proteros PR-0044
Procedure: To detect DHODH enzyme activities, dichloroindophenol (DCIP) is added as the final electron acceptor in the assay. DCIP can accept electrons from the reduced coenzyme Q generated in the assay, or from dihydroorotate (DHO) via FMN by binding presumably to the ubiquinone pocket. DCIP solutions are blue, with an intense absorbance around 600 nm, but becomes colorless upon reduction (J. Biol. Chem. (1986) 261, 11386). The assay buffer contained […], pH 7.5, 150 mM NaCl, 0.5 mM EDTA, and 0.1% Triton X-100 in MilliQ water. Substrate consisting of 20 mM DHO, 5 mM CoQ6, and 1 mM DCIP in assay buffer, initiates the reaction. The assay is run in end-point mode by quenching the reaction with the potent DHODH inhibitor brequinar. Absorbance measurements were obtained using the BMG Phera Star plate-reading spectrophotomer. Purified human DHODH was purchased from Proteros (cat. No. PR-0044). Chemicals were purchased from Sigma-Aldrich, Teknova, and Avanti Polar Lipids. Liquid handling was performed using Labcyte Echo and Formulatrix Tempest.

MOLM-13 cells = experiment: MOLM-13 Cellular Assay; format: cell-based; conditions: 72 hours exposure, cell viability by CellTiter-Glo
Procedure: MOLM-13 cells were obtained from DSMZ and were maintained in RPMI 1640+Glutamax+25 mM HEPES (Invitrogen, catalog number 72400) supplemented with 10% heat inactivated fetal bovine serum (FBS; Invitrogen, catalog number 16140). The day prior to assay set-up, cells were pelleted, resuspended in fresh media, counted, and cells were plated at 0.4×10^6 cell/mL in a T150 flask. On the day of the assay, cells were pelleted, resuspend in fresh media, counted, and seeded at 5,000 cells/well in white opaque 96-well tissue culture treated microplates (Perkin Elmer, catalog number 6005680). Cells were exposed to different concentrations of test compounds at 37° C., 5% CO2 for 72 hours immediately after seeding. Cell viability was acquired on a Perkin Elmer Envision 2104 multilabel reader using the CellTiter-Glo assay (Promega) according to the manufacturer's instructions.

T1 sequence (Q02127 whole entry): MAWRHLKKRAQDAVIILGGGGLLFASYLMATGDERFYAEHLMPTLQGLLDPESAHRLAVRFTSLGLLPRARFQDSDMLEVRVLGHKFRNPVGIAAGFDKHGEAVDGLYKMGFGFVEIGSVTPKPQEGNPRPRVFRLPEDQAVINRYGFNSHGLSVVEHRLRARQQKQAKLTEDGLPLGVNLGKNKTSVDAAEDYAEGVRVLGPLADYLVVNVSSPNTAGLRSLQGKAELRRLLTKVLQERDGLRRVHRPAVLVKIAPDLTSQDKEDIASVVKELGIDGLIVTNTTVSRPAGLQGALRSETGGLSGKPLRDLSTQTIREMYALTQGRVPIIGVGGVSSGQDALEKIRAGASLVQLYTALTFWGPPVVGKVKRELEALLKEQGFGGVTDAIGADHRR

| SMILES | IC50 (human DHODH) [nM] | IC50 (MOLM-13 cells) [nM] | IC50 (MOLM-13 cells; Homo sapiens, MOLM-13, 72 h) [nM] |
| --- | --- | --- | --- |
| CCn1c(CO)nn(-c2cc3c(C(C)C(F)(F)F)cc(-c4ccccc4C)nc3cc2F)c1=O (single isomer, unassigned) [Example 37, (R*)-4-Ethyl-1-(7-fluoro-2-(o-tolyl)-4-(1,1,1-trifluoropropan-2-yl)quinolin-6-yl)-3-(hydroxymethyl)-1H-1,2,4-triazol-5 (4H)-one] | 5.3 | 1 |  |
| CCn1c(CO)nn(-c2cc3c(C(C)C)cc(-c4ccccc4OC)nc3cc2F)c1=O [Example 1, 4-Ethyl-1-(7-fluoro-4-isopropyl-2-(2-methoxyphenyl)quinolin-6-yl)-3-(hydroxymethyl)-1H-1,2,4-triazol-5 (4H)-one] | 3.3 |  | 2.6 |
| CCn1c(CO)nn(-c2cc3c(C(C)C)cc(-c4c(C)cnc(OC)c4C)nc3cc2F)c1=O [Example 4, 4-Ethyl-1-(7-fluoro-4-isopropyl-2-(2-methoxy-3,5-dimethylpyridin-4-yl)quinolin-6-yl)-3-(hydroxymethyl)-1H-1,2,4-triazol-5 (4H)-one] | 1.7 |  | 8.4 |
| CCn1c(CO)nn(-c2cc3c(C(C)C)cc(OC4CCC4)nc3cc2F)c1=O [Example 6, 1-(2-Cyclobutoxy-7-fluoro-4-isopropylauinolin-6-yl)-4-ethyl-3-(hydroxymethyl)-1H-1,2,4-triazol-5 (4H)-one] | 1080 |  | > 100 |
| CCn1c(CO)nn(-c2cc3c(C(C)C)cc(-c4c(C)cnc(OC)c4Cl)nc3cc2F)c1=O [Example 7, 1-(2-(3-Chloro-2-methoxy-5-methylpyridin-4-yl)-7-fluoro-4-isopropylquinolin-6-yl)-4-ethyl-3-(hydroxymethyl)-1H-1,2,4-triazol-5 (4H)-one] | 1.5 |  | 4 |
| CCn1c(CO)nn(-c2cc3c(C(C)C)cc(-c4cc(OC)ncc4C)nc3cc2F)c1=O [Example 8, 4-Ethyl-1-(7-fluoro-4-isopropyl-2-(2-methoxy-5-methylpyridin-4-yl)quinolin-6-yl)-3-(hydroxymethyl)-1H-1,2,4-triazol-5 (4H)-one] | 4.8 |  | 9.1 |
| CCn1c(CO)nn(-c2cc3c(C(C)C)cc(-c4ccccc4C)nc3cc2F)c1=O [Example 9, 4-Ethyl-1-(7-fluoro-4-isopropyl-2-(o-tolyl)quinolin-6-yl)-3-(hydroxymethyl)-1H-1,2,4-triazol-5 (4H)-one] | 0.6 |  | 0.5 |
| CCn1c(CO)nn(-c2cc3c(C(C)C)cc(-c4c(C)ccnc4OC)nc3cc2F)c1=O [Example 11, 4-Ethyl-2-(7-fluoro-4-isopropyl-2-(2-methoxy-4-methylpyridin-3-yl)quinolin-6-yl)-5-(hydroxymethyl)-2,4-dihydro-3H-1,2,4-triazol-3-one] | 32 |  | 30 |
| CCn1c(CO)nn(-c2cc3c(C(C)C)cc(-n4nc(C)cc4C)nc3cc2F)c1=O [Example 12, 1-(2-(3,5-Dimethyl-1H-pyrazol-1-yl)-7-fluoro-4-isopropylquinolin-6-yl)-4-ethyl-3-(hydroxymethyl)-1H-1,2,4-triazol-5 (4H)-one] | 2.3 |  | 5 |
| CCn1c(CO)nn(-c2cc3c(C(C)C)cc(-c4c[nH]nc4C4CC4)nc3cc2F)c1=O [Example 15, 1-(2-(3-Cyclopropyl-1H-pyrazol-4-yl)-7-fluoro-4-isopropylquinolin-6-yl)-4-ethyl-3-(hydroxymethyl)-1H-1,2,4-triazol-5 (4H)-one] | 13 |  | 20 |
| CCn1c(CO)nn(-c2cc3c(C(C)C)cc(-c4c[nH]nc4C)nc3cc2F)c1=O [Example 16, 4-Ethyl-2-(7-fluoro-4-isopropyl-2-(3-methyl-1H-pyrazol-4-yl)quinolin-6-yl)-5-(hydroxymethyl)-2,4-dihydro-3H-1,2,4-triazol-3-one] | 9.4 |  | > 30 |
| CCn1c(CO)nn(-c2cc3c(C(C)C)cc(N4CCCC[C@@H]4C)nc3cc2F)c1=O [Example 17, (S)-4-Ethyl-2-(7-fluoro-4-isopropyl-2-(2-methylpiperidin-1-yl)quinolin-6-yl)-5-(hydroxymethyl)-2,4-dihydro-3H-1,2,4-triazol-3-one] | 230 |  | 40 |
| CCn1c(CO)nn(-c2cc3c(C(C)C)cc(N4CCCC[C@H]4C)nc3cc2F)c1=O [Example 18, (R)-4-Ethyl-2-(7-fluoro-4-isopropyl-2-(2-methylpiperidin-1-yl)quinolin-6-yl)-5-(hydroxymethyl)-2,4-dihydro-3H-1,2,4-triazol-3-one] | 2280 |  | > 100 |
| [2H]C([2H])([2H])c1ccccc1-c1cc(C(C)C)c2cc(-n3nc(CO)n(CC)c3=O)c(F)cc2n1 [Example 38, 4-Ethyl-1-(7-fluoro-4-isopropyl-2-(o-methyl-d3-phenyl)quinolin-6-yl)-3-(hydroxymethyl)-1H-1,2,4-triazol-5 (4H)-one] | 1.7 |  |  |

Continued by falling IC50 (human DHODH), values first:

| IC50 (human DHODH) [nM] | IC50 (MOLM-13 cells) [nM] | IC50 (MOLM-13 cells; Homo sapiens, MOLM-13, 72 h) [nM] | SMILES |
| --- | --- | --- | --- |
| 332 |  | > 100 | CCC(CC)Oc1cc(C(C)C)c2cc(-n3nc(CO)n(CC)c3=O)c(F)cc2n1 [Example 5, 4-Ethyl-1-(7-fluoro-4-isopropyl-2-(pentan-3-yloxy)quinolin-6-yl)-3-(hydroxymethyl)-1H-1,2,4-triazol-5 (4H)-one] |
| 270 |  | > 100 | CCN(CC)c1cc(C(C)C)c2cc(-n3nc(CO)n(CC)c3=O)c(F)cc2n1 [Example 13, 1-(2-(Diethylamino)-7-fluoro-4-isopropylquinolin-6-yl)-4-ethyl-3-(hydroxymethyl)-1H-1,2,4-triazol-5 (4H)-one] |
| 120 |  | 100 | CCn1c(CO)nn(-c2cc3c(C(C)C)cc(N4CCCCC4)nc3cc2F)c1=O [Example 14, 4-Ethyl-1-(7-fluoro-4-isopropyl-2-(piperidin-1-yl)quinolin-6-yl)-3-(hydroxymethyl)-1H-1,2,4-triazol-5 (4H)-one] |
| 1.9 |  | 2.2 | CCn1c(CO)nn(-c2cc3c(C(C)C)nc(-c4ccccc4C)nc3cc2F)c1=O [Example 10, 4-Ethyl-2-(7-fluoro-4-isopropyl-2-(o-tolyl)quinazolin-6-yl)-5-(hydroxymethyl)-2,4-dihydro-3H-1,2,4-triazol-3-one] |
| 0.58 |  | 0.7 | CCn1c(CO)nn(-c2cc3c(C(C)C)cc(-c4c(C(F)(F)F)n[nH]c4C)nc3cc2F)c1=O [Example 3, 4-Ethyl-1-(7-fluoro-4-isopropyl-2-(5-methyl-3-(trifluoromethyl)-1H-pyrazol-4-yl)quinolin-6-yl)-3-(hydroxymethyl)-1H-1,2,4-triazol-5 (4H)-one] |
| 0.49 |  | 1.7 | CCn1c(CO)nn(-c2cc3c(C(C)C)cc(-c4c(Cl)n[nH]c4C)nc3cc2F)c1=O [Example 2, 1-(2-(3-Chloro-5-methyl-1H-pyrazol-4-yl)-7-fluoro-4-isopropylauinolin-6-yl)-4-ethyl-3-(hydroxymethyl)-1H-1,2,4-triazol-5 (4H)-one] |
| 0.32 | 0.4 |  | CCn1c(CO)nn(-c2cc3c(C(C)C(F)(F)F)cc(-c4ccccc4C)nc3cc2F)c1=O (single isomer, unassigned) [Example 36, (S*)-4-Ethyl-1-(7-fluoro-2-(o-tolyl)-4-(1,1,1-trifluoropropan-2-yl)quinolin-6-yl)-3-(hydroxymethyl)-1H-1,2,4-triazol-5 (4H)-one] |
